The results in this text go back to patent US9029337B2, “Modulation of factor 7 expression” (Isis Pharmaceuticals, Inc., priority 2007, dated 2015).

Strand notation (5' to 3'): a small letter for the sugar, then the base; units joined by * are phosphorothioate-linked, units joined directly phosphodiester-linked; [ ] holds rarer units or linkages, { } end groups; capitals alone tell only the bases. e = 2'-O-(2-methoxyethyl) (MOE); [5mC] = 5-methylcytosine; d = 2'-deoxy (DNA)

As usually defined, the % Inhibition is the relative decrease from the control value, in per cent. A lower % Inhibition goes with a weak effect.

For the series, the system named is human Factor 7 mRNA. The series is described as follows: Antisense inhibition of human Factor 7 with short (14-mer) oligonucleotides in HepB3 cells, electroporation 1,000 nM. It is filed as cell-based. The settings on record: electroporation, 1,000 nM antisense oligonucleotide, approximately 24 hours, Factor 7 mRNA relative to untreated control cells. An outline of the steps:
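14-mer 2-10-2 MOE gapmers (full phosphorothioate, 5-methyl-C) electroporated at 1,000 nM into HepB3 cells at 20,000 cells/well. After ~24 h, Factor 7 mRNA by real-time RT-PCR, normalized to RiboGreen total RNA. Reported as % inhibition relative to untreated cells.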
For the substance “435737 (antisense eG*eT*dG*d[5mC]*dA*dG*d[5mC]*d[5mC]*d[5mC]*dG*dG*d[5mC]*eA*e[5mC]) [compound 435737]”, the “% Inhibition” value turned out to be 70%.

In the case of “435738 (antisense e[5mC]*eA*dG*dA*dG*dG*dA*dT*dG*dA*dG*d[5mC]*eA*e[5mC]) [compound 435738]”, the “% Inhibition” value came to 16%.

With “435739 (antisense e[5mC]*eA*dT*d[5mC]*dT*d[5mC]*dA*dG*dA*dG*dG*dA*eT*eG) [compound 435739]”, the “% Inhibition” value amounted to 5%.

Regarding “435740 (antisense eT*e[5mC]*dA*dT*dT*dT*d[5mC]*dA*dG*dT*dG*dA*eT*eG) [compound 435740]”, the “% Inhibition” value worked out at 0%.

Regarding “435741 (antisense eA*eG*dG*dG*dT*dT*d[5mC]*dA*dT*dT*dT*d[5mC]*eA*eG) [compound 435741]”, the “% Inhibition” value came out at 6%.

As for “435742 (antisense eA*eT*dG*dT*dG*dA*dG*dG*dG*dT*dT*d[5mC]*eA*eT) [compound 435742]”, the “% Inhibition” value is 11%.

For “435743 (antisense eG*e[5mC]*d[5mC]*dT*d[5mC]*dA*dA*dA*d[5mC]*dA*dT*d[5mC]*eT*eA) [compound 435743]”, the “% Inhibition” value came to 40%.

Regarding “435744 (antisense e[5mC]*eT*dA*d[5mC]*dA*dG*d[5mC]*d[5mC]*dT*d[5mC]*dA*dA*eA*e[5mC]) [compound 435744]”, the “% Inhibition” value is 19%.

With “435745 (antisense eG*eG*dG*dA*dG*d[5mC]*dT*dA*d[5mC]*dA*dG*d[5mC]*e[5mC]*eT) [compound 435745]”, the “% Inhibition” value is recorded as 0%.

With “435746 (antisense eA*eT*dT*dG*dA*d[5mC]*dA*dA*dG*dG*dG*d[5mC]*eT*eG) [compound 435746]”, the “% Inhibition” value turned out to be 32%.

For the substance “435747 (antisense eA*eT*dA*dT*d[5mC]*dA*dT*dT*dG*dA*d[5mC]*dA*eA*eG) [compound 435747]”, the “% Inhibition” value worked out at 0%.

In the case of “435748 (antisense eT*e[5mC]*d[5mC]*d[5mC]*dA*dG*dG*dG*dT*d[5mC]*dT*d[5mC]*eT*eG) [compound 435748]”, the “% Inhibition” value was 18%.

Consider “435749 (antisense e[5mC]*eA*dG*d[5mC]*d[5mC]*dA*dG*dG*dG*d[5mC]*d[5mC]*dT*eG*eG) [compound 435749]”, for which the “% Inhibition” value came to 29%.

For “435750 (antisense e[5mC]*eA*d[5mC]*dT*dG*d[5mC]*dA*dG*d[5mC]*d[5mC]*dA*dG*eG*eG) [compound 435750]”, the “% Inhibition” value is listed as 14%.

As to “435751 (antisense e[5mC]*eT*dT*dG*d[5mC]*d[5mC]*dA*dG*dG*dT*d[5mC]*d[5mC]*eT*e[5mC]) [compound 435751]”, the “% Inhibition” value is 28%.

In the case of “435752 (antisense eT*eG*d[5mC]*dA*dG*d[5mC]*dT*dT*dG*d[5mC]*d[5mC]*dA*eG*eG) [compound 435752]”, the “% Inhibition” value is 12%.

Regarding “435753 (antisense eA*eA*dG*dA*dG*dT*dG*d[5mC]*dA*dG*d[5mC]*dT*eT*eG) [compound 435753]”, the “% Inhibition” value came out at 9%.

On to “435754 (antisense eT*e[5mC]*dA*dG*d[5mC]*dA*dA*dG*dA*dG*dT*dG*e[5mC]*eA) [compound 435754]”, for which the “% Inhibition” value was 16%.

“435755 (antisense eG*eG*dG*dA*d[5mC]*dT*d[5mC]*dA*dG*d[5mC]*dA*dA*eG*eA) [compound 435755]”: the “% Inhibition” value is listed as 0%.

For “435756 (antisense eT*eG*d[5mC]*d[5mC]*d[5mC]*dA*dG*dG*dA*d[5mC]*dG*dG*e[5mC]*e[5mC]) [compound 435756]”, the “% Inhibition” value amounted to 20%.

In the case of “435757 (antisense eT*eG*d[5mC]*d[5mC]*dT*dG*dA*dG*dT*dG*d[5mC]*d[5mC]*e[5mC]*e[5mC]) [compound 435757]”, the “% Inhibition” value was determined as 51%.

On to “435758 (antisense e[5mC]*e[5mC]*d[5mC]*dT*dG*dA*dG*d[5mC]*dT*dG*dG*dG*e[5mC]*eA) [compound 435758]”, for which the “% Inhibition” value stood at 4%.

In the case of “435759 (antisense eG*eA*dG*d[5mC]*d[5mC]*dA*d[5mC]*dA*dG*dA*dG*d[5mC]*e[5mC]*eT) [compound 435759]”, the “% Inhibition” value is 11%.

With “435760 (antisense eT*e[5mC]*dT*dT*dG*dG*dG*dT*dG*dT*dG*dG*eA*eT) [compound 435760]”, the “% Inhibition” value was determined as 17%.

Regarding “435761 (antisense e[5mC]*eA*dG*dA*dT*dG*dA*dA*dA*dA*d[5mC]*dT*eT*eG) [compound 435761]”, the “% Inhibition” value was 5%.

Turning to “435762 (antisense e[5mC]*eA*dG*dG*dT*dG*dT*dT*dA*dA*dG*dG*eT*eG) [compound 435762]”, the “% Inhibition” value is 0%.

Turning to “435763 (antisense eA*eG*dG*dA*dG*dA*dA*dA*dG*dG*dT*d[5mC]*eA*eG) [compound 435763]”, the “% Inhibition” value stood at 2%.

Consider “435764 (antisense eT*eG*dA*dG*dA*dG*d[5mC]*dT*dG*d[5mC]*dA*d[5mC]*e[5mC]*eT) [compound 435764]”, for which the “% Inhibition” value is 8%.

On to “435765 (antisense e[5mC]*eA*dA*dA*dG*dT*dT*d[5mC]*dT*d[5mC]*dT*dG*e[5mC]*e[5mC]) [compound 435765]”, for which the “% Inhibition” value came to 1%.

In the case of “435766 (antisense eG*e[5mC]*dA*d[5mC]*d[5mC]*dT*dG*d[5mC]*dA*dG*d[5mC]*d[5mC]*eA*eG) [compound 435766]”, the “% Inhibition” value was 51%.

“435767 (antisense e[5mC]*eA*d[5mC]*d[5mC]*dA*dA*dG*dT*dT*dT*dA*dT*eG*eG) [compound 435767]”: the “% Inhibition” value is 0%.

On to “435768 (antisense eG*e[5mC]*d[5mC]*dT*dG*dG*dA*dT*dG*d[5mC]*dT*dG*eG*eT) [compound 435768]”, for which the “% Inhibition” value came to 75%.

As to “435769 (antisense eT*eT*d[5mC]*dT*dT*dT*dG*dA*dA*dA*dA*dA*eT*eA) [compound 435769]”, the “% Inhibition” value is listed as 0%.

As to “435770 (antisense e[5mC]*eT*d[5mC]*dT*dG*dA*dG*dA*dG*dG*d[5mC]*d[5mC]*e[5mC]*e[5mC]) [compound 435770]”, the “% Inhibition” value turned out to be 81%.

On to “435771 (antisense eG*eT*d[5mC]*dA*dT*dA*dA*dG*dG*d[5mC]*d[5mC]*dA*eT*eG) [compound 435771]”, for which the “% Inhibition” value is reported as 13%.

For the substance “435772 (antisense eG*e[5mC]*dA*dG*dT*d[5mC]*d[5mC]*d[5mC]*dT*dG*d[5mC]*dT*e[5mC]*eA) [compound 435772]”, the “% Inhibition” value was 42%.

Regarding “435773 (antisense e[5mC]*eA*dG*dG*dG*dA*dA*d[5mC]*dA*d[5mC]*d[5mC]*d[5mC]*eT*e[5mC]) [compound 435773]”, the “% Inhibition” value was 57%.

In the case of “435774 (antisense eG*eT*d[5mC]*d[5mC]*d[5mC]*dA*dG*dG*dG*dA*dA*dG*eG*e[5mC]) [compound 435774]”, the “% Inhibition” value turned out to be 17%.

On to “435775 (antisense eT*e[5mC]*dT*dG*dG*dA*dA*dG*dG*dA*dA*d[5mC]*eA*eG) [compound 435775]”, for which the “% Inhibition” value was 25%.

As to “435776 (antisense eG*eG*dG*dA*d[5mC]*dA*d[5mC]*dT*d[5mC]*dA*d[5mC]*dA*e[5mC]*eT) [compound 435776]”, the “% Inhibition” value came out at 51%.

Regarding “435777 (antisense e[5mC]*eT*dG*dA*dG*dG*dA*dT*dG*d[5mC]*dA*dG*eG*e[5mC]) [compound 435777]”, the “% Inhibition” value was determined as 53%.

With “435778 (antisense eG*e[5mC]*dT*dA*d[5mC]*dT*dG*dG*dG*d[5mC]*d[5mC]*dA*e[5mC]*eG) [compound 435778]”, the “% Inhibition” value is reported as 49%.

As to “435779 (antisense eT*eG*dA*dG*d[5mC]*dG*d[5mC]*dG*dG*dA*dA*dG*eA*eA) [compound 435779]”, the “% Inhibition” value was found to be 50%.

Consider “435780 (antisense eG*eG*dA*dG*dG*dG*dA*d[5mC]*dG*dA*d[5mC]*d[5mC]*eT*eT) [compound 435780]”, for which the “% Inhibition” value is 28%.

“435781 (antisense eA*e[5mC]*d[5mC]*dA*d[5mC]*dG*d[5mC]*dG*dG*dT*dG*dG*eT*eG) [compound 435781]”: the “% Inhibition” value turned out to be 0%.

Regarding “435782 (antisense e[5mC]*eG*dT*dG*d[5mC]*dG*d[5mC]*dT*d[5mC]*dA*dG*d[5mC]*eT*e[5mC]) [compound 435782]”, the “% Inhibition” value is 36%.

As for “435783 (antisense eA*eA*dA*d[5mC]*d[5mC]*dG*dG*d[5mC]*dA*dT*dG*d[5mC]*eG*e[5mC]) [compound 435783]”, the “% Inhibition” value amounted to 49%.

Turning to “435784 (antisense e[5mC]*e[5mC]*dT*dA*dA*dG*dT*dG*dT*dG*d[5mC]*dT*eT*eT) [compound 435784]”, the “% Inhibition” value amounted to 17%.

Take “435785 (antisense eA*eG*d[5mC]*dT*dT*d[5mC]*dT*d[5mC]*dA*d[5mC]*d[5mC]*dA*e[5mC]*eG) [compound 435785]”: the “% Inhibition” value came out at 46%.

With “435786 (antisense eA*eG*dG*dT*dG*dA*d[5mC]*d[5mC]*d[5mC]*dG*dT*dG*eA*eG) [compound 435786]”, the “% Inhibition” value worked out at 68%.

For “435787 (antisense eG*eA*dG*dT*dG*dT*dG*dA*dG*dG*d[5mC]*dT*eT*e[5mC]) [compound 435787]”, the “% Inhibition” value was determined as 34%.

For “435788 (antisense e[5mC]*e[5mC]*dT*dG*dT*dG*dA*dG*dT*dG*dT*dG*eA*eG) [compound 435788]”, the “% Inhibition” value amounted to 20%.

With “435789 (antisense e[5mC]*eA*dT*dG*dT*dT*dA*dG*d[5mC]*d[5mC]*dT*dT*eT*eG) [compound 435789]”, the “% Inhibition” value came to 3%.

Consider “435790 (antisense eA*eT*dG*dA*d[5mC]*d[5mC]*dA*dT*d[5mC]*d[5mC]*dT*d[5mC]*eA*eA) [compound 435790]”, for which the “% Inhibition” value is recorded as 1%.
